Test results from patent publication US20100099756A1, “USES OF INCENSOLE, INCENSOLE ACETATE AND DERIVATIVES THEREOF” (YISSUM RESEARCH DEVELOPMENT COMPANY OF THE HEBREW …, priority 2006, published 2010).

Legend:
mouse TRPV3-YFP = target: T1, mouse TRPV3-YFP (Mus musculus, UniProt Q8K424); assay: Whole-cell voltage-clamp, TRPV3-YFP expressing HEK293 cells; type: cell-based; details: IA 200 μM; 2-APB 100 μM; charge −85 to −45 mV
T1 construct: expressed in transfected cells
T1 sequence (Q8K424 1-791): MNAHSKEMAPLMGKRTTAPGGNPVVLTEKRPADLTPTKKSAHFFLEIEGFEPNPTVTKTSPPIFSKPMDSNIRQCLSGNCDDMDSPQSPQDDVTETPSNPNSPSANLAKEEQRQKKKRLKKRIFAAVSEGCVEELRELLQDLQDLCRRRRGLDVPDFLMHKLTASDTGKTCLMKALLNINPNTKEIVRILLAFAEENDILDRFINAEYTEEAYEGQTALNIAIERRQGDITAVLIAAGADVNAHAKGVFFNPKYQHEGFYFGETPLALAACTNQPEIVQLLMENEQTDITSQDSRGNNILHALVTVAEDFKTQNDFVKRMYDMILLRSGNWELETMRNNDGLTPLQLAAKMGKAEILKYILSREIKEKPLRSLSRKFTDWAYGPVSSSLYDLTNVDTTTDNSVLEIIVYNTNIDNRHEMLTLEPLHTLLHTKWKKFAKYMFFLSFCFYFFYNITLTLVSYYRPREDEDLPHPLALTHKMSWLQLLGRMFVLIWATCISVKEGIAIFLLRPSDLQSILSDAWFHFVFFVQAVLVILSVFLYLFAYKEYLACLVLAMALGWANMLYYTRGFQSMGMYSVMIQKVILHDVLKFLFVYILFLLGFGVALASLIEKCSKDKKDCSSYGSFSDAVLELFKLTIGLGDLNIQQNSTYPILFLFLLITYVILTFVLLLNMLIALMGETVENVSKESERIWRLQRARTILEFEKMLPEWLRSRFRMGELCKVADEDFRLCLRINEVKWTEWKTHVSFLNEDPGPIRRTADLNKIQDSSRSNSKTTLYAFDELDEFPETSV
Procedure: Electrophysiological recording. Currents were recorded using whole-cell voltage-clamp. Pipettes were pulled from microcapillary glass (A-M Systems). A coverslip containing cells was transferred to a 300 μL chamber that was constantly perfused (1-2 mL/min) with external solution. Voltage protocols were generated and data were digitized and recorded using Pulse (HEKA Elektronik) software in conjunction with an Axopatch 200A amplifier (Axon Instruments), and the data analyzed using an in-house Visual Basic (Microsoft) analysis program.
The external solution contained (in mM): 120 NaCl, 5 KCl, 1 MgCl2, 2 CaCl2, 10 Glucose and 20 HEPES, pH 7.4 with NaOH. The measured charge (pC) was defined as the charge elicited between -85 and -45 mV by a ramping voltage stimulus (−85 mV to +35 mV, 0.54 mV/msec; holding potential -55 mV). Currents were sampled at 5 kHz. Experimental and control cells were alternated whenever possible. Control values were obtained from adjacent cells with no detectable YFP fluorescence, presumed to be non-TRPV3-expressing.

NO generation = assay: Nitric oxide (NO) levels in LPS-activated murine peritoneal macrophages; type: cell-based, mice
Procedure: (A(1)) Representative Western Blot bands of Cox2 are shown with tubulin as reference. (A(2)) COX-2 levels were measured in RAW 264.7 cells incubated for 24 hrs. with LPS in the presence or in the absence of IA (60 μM/ml); **, p<0.001. (B) Murine peritoneal macrophages were activated by LPS (1 μg/ml for 24 hrs.) in absence of IA or in the presence of IA at indicated concentrations. NO generation was determined by measuring the nitrite accumulated in the supernatants; **, p<0.001. (C) Generation of ROS by RAW 264.7 macrophages (5×10^5 cells in 0.5 ml Hanks' balanced salt solution) was measured by chemiluminescence. Cells were pre-incubated with various doses of IA for 24 hrs before luminol (10 μl) and zymosan (30 μl) were added to the tubes; *, p<0.05; **, p<0.01; ***, p<0.001
Peritoneal macrophages were harvested from C57BL/6 female mice four days after intraperitoneal injection of 1.5 ml of a 3% thioglycollate medium (Difco, N.J., USA). […]
Nitric Oxide (NO) Levels. […] NO generation was determined by measuring the nitrite accumulated in the supernatants (100 μl) of the IA-treated macrophages as follows. […] Following 10 min of incubation at room temperature, the color production was measured at 550 nm with an ELISA reader. The concentration of the nitrite was calculated according to a standard curve.

rat TRPV4 = target: T2, rat TRPV4 (Rattus norvegicus, UniProt Q9ERZ8); assay: Calcium imaging of TRPV4 transfected HEK293 cells; type: cell-based; details: IA 100 μM, compared to vehicle
T2 construct: expressed in transfected cells; host or cells: HEK293 cell line
T2 sequence (Q9ERZ8 whole entry): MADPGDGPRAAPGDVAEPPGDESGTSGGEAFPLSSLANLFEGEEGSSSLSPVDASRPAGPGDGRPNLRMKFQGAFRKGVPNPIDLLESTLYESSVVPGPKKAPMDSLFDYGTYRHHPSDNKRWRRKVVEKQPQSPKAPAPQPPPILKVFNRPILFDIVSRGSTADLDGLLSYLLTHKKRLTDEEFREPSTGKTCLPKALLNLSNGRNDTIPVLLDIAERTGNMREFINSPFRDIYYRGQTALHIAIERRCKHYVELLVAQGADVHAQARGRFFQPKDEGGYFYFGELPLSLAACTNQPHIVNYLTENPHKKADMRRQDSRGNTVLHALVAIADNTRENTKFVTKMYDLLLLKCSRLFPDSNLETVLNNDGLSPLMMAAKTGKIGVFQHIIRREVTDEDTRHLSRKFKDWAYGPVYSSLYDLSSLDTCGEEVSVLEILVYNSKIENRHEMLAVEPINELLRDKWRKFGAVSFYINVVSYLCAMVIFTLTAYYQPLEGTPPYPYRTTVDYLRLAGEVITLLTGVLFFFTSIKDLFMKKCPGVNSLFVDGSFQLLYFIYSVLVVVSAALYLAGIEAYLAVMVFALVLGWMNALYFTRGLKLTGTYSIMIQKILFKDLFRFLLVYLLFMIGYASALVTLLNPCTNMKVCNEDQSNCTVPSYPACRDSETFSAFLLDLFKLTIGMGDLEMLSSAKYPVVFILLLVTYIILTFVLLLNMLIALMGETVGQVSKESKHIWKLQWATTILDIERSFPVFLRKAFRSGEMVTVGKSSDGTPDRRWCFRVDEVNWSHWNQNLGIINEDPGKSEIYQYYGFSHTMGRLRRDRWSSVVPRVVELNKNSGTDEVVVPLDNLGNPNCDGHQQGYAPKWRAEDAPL
Procedure: All error bars indicate SEM; p values in all subfigures but c represent analysis with one-way ANOVA Bonferroni's post hoc.
TRPV3-YFP [O'dell, D. K., Rimmerman, N., Pickens, S. R. & Walker J. M. Fatty acyl amides of endogenous tetrahydroisoquinolines are active at the recombinant human TRPV1 receptor. Bioorg. Med. Chem. 15, 6164-6169 (2007)], TRPV4 and mock-transfected cell lines were cultured in DMEM 1× with L-glutamine (Mediatech, Inc. Herndon, Va.), containing 1% penicillin-streptomycin (Invitrogen, Carlsbad, Calif.) and 10% foetal bovine serum.
Calcium imaging of HEK 293 cells. TRPV1, TRPV3, and TRPV4 expressing HEK293 cells were plated 24-48 h before imaging in 96 well plates, loaded with 3 μM Fura-2 AM and imaged as previously described [O'dell, D. K., Rimmerman, N., Pickens, S. R. & Walker J. M. Fatty acyl amides of endogenous tetrahydroisoquinolines are active at the recombinant human TRPV1 receptor. Bioorg. Med. Chem. 15, 6164-6169 (2007)].

## CC(=O)OC1CC/C(C)=C/CC/C(C)=C/CC2(C(C)C)CCC1(C)O2 (stereo not shown) [IA, incensole acetate]
Mouse TRPV3-YFP
  current activation in TRPV3(+) HEK293 cells: activation of currents
NO generation; LPS 1 μg/ml for 24 hrs, ANOVA P<0.0001
  NO generation (nitrite in supernatants), dose dependence: inhibited NO generation in a dose dependent manner
NO generation; at 80 μM, p=0.0022
  NO production: about 45%
Rat TRPV4
  calcium influx in TRPV4 transfected HEK293 cells: very modest calcium influx
